This assay deals with T1, human Kv3.1 channels (hKv3.1) (Homo sapiens, UniProt P48547).
T1 construct: expressed in transfected cells
T1 sequence (P48547 1-511): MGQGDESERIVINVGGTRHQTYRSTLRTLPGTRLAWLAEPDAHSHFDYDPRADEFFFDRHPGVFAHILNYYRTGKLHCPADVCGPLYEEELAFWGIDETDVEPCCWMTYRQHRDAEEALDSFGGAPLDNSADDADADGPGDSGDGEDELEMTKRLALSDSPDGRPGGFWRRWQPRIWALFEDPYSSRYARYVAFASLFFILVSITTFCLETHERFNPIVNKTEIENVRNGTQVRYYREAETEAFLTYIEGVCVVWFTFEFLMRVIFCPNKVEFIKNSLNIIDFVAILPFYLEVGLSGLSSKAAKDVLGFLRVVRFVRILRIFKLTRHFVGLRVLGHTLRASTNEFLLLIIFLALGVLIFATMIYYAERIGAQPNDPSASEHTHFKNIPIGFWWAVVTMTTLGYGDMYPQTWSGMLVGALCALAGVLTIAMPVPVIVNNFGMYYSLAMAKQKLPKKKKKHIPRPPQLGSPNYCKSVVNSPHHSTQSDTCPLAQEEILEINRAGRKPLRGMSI
Kind of assay: Kv3.1 channel modulation, IonWorks Quattro planar array electrophysiology. The conditions noted are these: for Kv3.1 max R %: normalised to maximum effect of 50 microM reference compound. The format is cell-based. In general terms: Patch clamp records ionic current or voltage across a cell membrane.

[1] abbreviates: HEK-293 cells expressing human Kv3.1, currents at −15 mV voltage step, normalised to 50 microM reference compound and vehicle, read-out: Kv3.1 pEC50 (converted).
[2] abbreviates: HEK-293 cells expressing human Kv3.1, currents at −15 mV voltage step, normalised to 50 microM reference compound and vehicle.
Setting [3] is: HEK-293 cells expressing human Kv3.1.

The text below walks through data of patent US20260199309A1, “COMPOUNDS FOR THE TREATMENT OF CENTRA NERVOUS SYSTEM DISORDERS” (Autifony Therapeutics Limited, priority 2022, published 2026).

Read-outs that look alike come from different tables or passages of the source.

On to `CC[C@H]1NC(=O)N(c2ccc(Oc3ccc(C#N)c(OC(F)(F)F)c3)nc2OC)C1=O` [Reference Example 18, reference compound], for which, under setting [1], the EC50 is 10000 nM.
For `CC[C@H]1NC(=O)N(c2ccc(Oc3ccc(C)c(OC(F)(F)F)c3)nc2N)C1=O` [Example 8, (5R)-3-[2-amino-6-[4-methyl-3-(trifluoromethoxy)phenoxy]-3-pyridyl]-5-ethyl-imidazolidine-2,4-dione], the “Kv3.1 pEC50” value under setting [2] came to 5.5. Further, the EC50 under setting [1] was 3160 nM. Further, under setting [3], the “Kv3.1 max R %” value stood at 137%.
Consider `Cc1ccc(Oc2ccc(N3C(=O)NC(C)(C)C3=O)c(C)n2)c2c1OCC21CC1` [Reference Example 3, reference compound], for which, under setting [1], the EC50 is 1580 nM.
Take `Cc1ccc(Oc2ccc(N3C(=O)NC(C)(C)C3=O)c(N)n2)c2c1OCC2(C)C` [Example 14, 3-[2-amino-6-[(3,3,7-trimethyl-2H-benzofuran-4-yl)oxy]-3-pyridyl]-5,5-dimethyl-imidazolidine-2,4-dione]: the EC50 under setting [1] was 501 nM. For the same molecule, the “Kv3.1 max R %” value under setting [3] was 165%.
In the case of `CC[C@H]1NC(=O)N(c2ccc(Oc3cccc4c3C3(CC3)CO4)nc2N)C1=O` [Example 4, (5R)-3-(2-amino-6-spiro[2H-benzofuran-3,1′-cyclopropane]-4-yloxy-3-pyridyl)-5-ethyl-imidazolidine-2,4-dione], the “Kv3.1 pEC50” value under setting [2] was found to be 6.0. In addition, under setting [1], the EC50 is 1000 nM. The “Kv3.1 max R %” value under setting [3] is recorded as 159%.
Regarding `CC[C@H]1NC(=O)N(c2ccc(Oc3ccc(C#N)c(C(C)C)c3)nc2)C1=O` [Reference Example 19, reference compound], under setting [1], the EC50 is 1260 nM.
In the case of `CC1(C)NC(=O)N(c2ccc(Oc3cccc4c3C3(CC3)CO4)nc2N)C1=O` [Example 3, 3-(2-amino-6-spiro[2H-benzofuran-3,1′-cyclopropane]-4-yloxy-3-pyridyl)-5,5-dimethyl-imidazolidine-2,4-dione], under setting [2], the “Kv3.1 pEC50” value came out at 6.3. For the same molecule, under setting [1], the EC50 is 501 nM. In addition, the “Kv3.1 max R %” value under setting [3] was 159%.
As to `CC(C)c1cc(Oc2ccc(N3C(=O)NC(C)(C)C3=O)c(N)n2)ccc1C#N` [Example 12, 4-[[6-amino-5-(4,4-dimethyl-2,5-dioxo-imidazolidin-1-yl)-2-pyridyl]oxy]-2-isopropyl-benzonitrile], the EC50 under setting [1] is 2000 nM. Further, under setting [3], the “Kv3.1 max R %” value was 175%.
With `CC[C@H]1NC(=O)N(c2ccc(Oc3ccc(C)c4c3C3(CC3)CO4)nc2C)C1=O` [Reference Example 12, reference compound], the EC50 under setting [1] is 631 nM.
For the molecule `CC[C@H]1NC(=O)N(c2ccc(Oc3cccc4c3C3(CC3)CO4)nc2OC)C1=O` [Reference Example 14, reference compound], the EC50 under setting [1] was 2000 nM.
`CC1(C)NC(=O)N(c2ccc(Oc3cccc4c3C(C)(C)CO4)nc2N)C1=O` [Example 5, 3-[2-amino-6-[(3,3-dimethyl-2H-benzofuran-4-yl)oxy]-3-pyridyl]-5,5-dimethyl-imidazolidine-2,4-dione]: under setting [1], the EC50 is 631 nM. Under setting [3], the “Kv3.1 max R %” value worked out at 152%.
Turning to `COc1nc(Oc2cccc3c2C2(CC2)CO3)ccc1N1C(=O)NC(C)(C)C1=O` [Reference Example 5, reference compound], the EC50 under setting [1] was 3980 nM.
For `CC[C@H]1NC(=O)N(c2ccc(Oc3ccc(C)c4c3C3(CC3)CO4)nc2N)C1=O` [Example 2, (5R)-3-[2-amino-6-(7-methylspiro[2H-benzofuran-3,1′-cyclopropane]-4-yl)oxy-3-pyridyl]-5-ethyl-imidazolidine-2,4-dione], the “Kv3.1 pEC50” value under setting [2] is given as 6.3. Moreover, the EC50 under setting [1] was 501 nM. For the same molecule, the “Kv3.1 max R %” value under setting [3] is 161%.
Turning to `CC1(C)NC(=O)N(c2ccc(Oc3cccc4c3C3(CC3)CO4)nc2)C1=O` [Reference Example 4, reference compound], the EC50 under setting [1] is 31600 nM.
`Cc1ccc(Oc2ccc(N3C(=O)NC(C)(C)C3=O)cn2)c2c1OCC21CC1` [Reference Example 1, reference compound] showed an EC50 of 2510 nM.
Consider `CC1(C)NC(=O)N(c2ccc(Oc3ccc(C#N)c(OC(F)(F)F)c3)nc2N)C1=O` [Example 10, 4-[[6-amino-5-(4,4-dimethyl-2,5-dioxo-imidazolidin-1-yl)-2-pyridyl]oxy]-2-(trifluoromethoxy)benzonitrile], for which the “Kv3.1 pEC50” value under setting [2] amounted to 5.6. Besides, under setting [1], the EC50 is 2510 nM. The “Kv3.1 max R %” value under setting [3] worked out at 113%.
For the molecule `CC[C@H]1NC(=O)N(c2ccc(Oc3ccc(C)c(OC(F)(F)F)c3)nc2)C1=O` [Reference Example 15, reference compound], the EC50 under setting [1] was 2510 nM.
Same read-out and setting: the same measure for `COc1nc(Oc2ccc(C#N)c(OC(F)(F)F)c2)ccc1N1C(=O)NC(C)(C)C1=O` [Reference Example 9, reference compound]: 12600 nM.
On the same count and under the same terms, the same measure for `Cc1ccc(Oc2ccc(N3C(=O)NC(C)(C)C3=O)c(C)n2)cc1OC(F)(F)F` [Reference Example 8, reference compound]: 6310 nM; for `COc1nc(Oc2ccc(C)c(OC(F)(F)F)c2)ccc1N1C(=O)NC(C)(C)C1=O` [Reference Example 7, reference compound]: 12600 nM; for `CC[C@H]1NC(=O)N(c2ccc(Oc3ccc(C)c4c3C3(CC3)CO4)nc2OC)C1=O` [Reference Example 11, reference compound]: 1260 nM.
`Cc1ccc(Oc2ccc(N3C(=O)NC(C)(C)C3=O)cn2)cc1OC(F)(F)F` [Reference Example 6, reference compound]: the EC50 is 10000 nM.
As to `COc1cccc(Oc2ccc(N3C(=O)NC(C)(C)C3=O)c(N)n2)c1` [Example 6, 3-[2-amino-6-(3-methoxyphenoxy)-3-pyridyl]-5,5-dimethyl-imidazolidine-2,4-dione], the EC50 under setting [1] is 12600 nM. Besides, the “Kv3.1 max R %” value under setting [3] is reported as 89%.
For the molecule `Cc1ccc(Oc2ccc(N3C(=O)NC(C)(C)C3=O)c(N)n2)cc1OC(F)(F)F` [Example 7, 3-[2-amino-6-[4-methyl-3-(trifluoromethoxy)phenoxy]-3-pyridyl]-5,5-dimethyl-imidazolidine-2,4-dione], the “Kv3.1 pEC50” value under setting [2] worked out at 5.6. The EC50 under setting [1] was 2510 nM. For the same molecule, under setting [3], the “Kv3.1 max R %” value came to 135%.
On the same counts, the results for `CC[C@H]1NC(=O)N(c2ccc(Oc3ccc(C#N)c(C(C)C)c3)nc2N)C1=O` [Example 13, 4-[[6-amino-5-[(4R)-4-ethyl-2,5-dioxo-imidazolidin-1-yl]-2-pyridyl]oxy]-2-isopropyl-benzonitrile] are 5.5, 3160 nM and 161%.
As for `CC[C@H]1NC(=O)N(c2ccc(Oc3ccc(C)c(OC(F)(F)F)c3)nc2OC)C1=O` [Reference Example 16, reference compound], the EC50 under setting [1] was 7940 nM.
As to `CC[C@H]1NC(=O)N(c2ccc(Oc3ccc(C)c(OC(F)(F)F)c3)nc2C)C1=O` [Reference Example 17, reference compound], the EC50 under setting [1] is 5010 nM.
Turning to `CC[C@H]1NC(=O)N(c2ccc(Oc3ccc(C#N)c(OC(F)(F)F)c3)nc2N)C1=O` [Example 11, 4-[[6-amino-5-[(4R)-4-ethyl-2,5-dioxo-imidazolidin-1-yl]-2-pyridyl]oxy]-2-(trifluoromethoxy)benzonitrile], under setting [2], the “Kv3.1 pEC50” value is 5.5. Further, the EC50 under setting [1] was 3160 nM. The “Kv3.1 max R %” value under setting [3] is 161%.
